The source of these data is patent publication US20240239775A1, “FXR REGULATOR, PREPARATION METHOD THEREFOR, PHARMACEUTICAL COMPOSITION THEREOF AND USE THEREOF” (QINGDAO RUIJI MEDICAL TECHNOLOGY CO., LTD., priority 2021, published 2024).

In one data set the target is T1, FXR (Homo sapiens, UniProt Q96RI1).
T1 construct: 5 μL of 20 nM FXR-LBD Complete Coregulator buffer G; purchased ThermoFisher PV4833
T1 sequence (Q96RI1 262-486 limits assumed): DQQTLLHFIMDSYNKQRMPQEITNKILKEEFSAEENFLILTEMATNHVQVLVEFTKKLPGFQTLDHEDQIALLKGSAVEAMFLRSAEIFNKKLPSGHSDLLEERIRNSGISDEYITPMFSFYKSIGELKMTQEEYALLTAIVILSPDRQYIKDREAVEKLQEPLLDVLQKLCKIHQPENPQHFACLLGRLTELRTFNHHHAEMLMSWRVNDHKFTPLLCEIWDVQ
Briefly: FXR antagonist screening by TR-FRET (LanthaScreen TR-FRET FXR co-activation assay kit). The data set is classed as biochemical. The following applies: Table 1.1, FXR antagonistic activity; TR-FRET with CDCA; geometric means of at least two independent runs. In outline: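 FXR-LBD (20 nM working solution) mixed with compound, CDCA (200 μM working solution) as agonist, Fluorescein-SRC2-2 and Tb-anti-GST antibody in Coregulator buffer G; 10 h at room temperature. Coactivator recruitment read by TR-FRET, triplicate wells.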
In general terms: Time-resolved FRET reads energy transfer from a long-lived donor to a nearby acceptor.

In turn, `Cc1c(C(=O)O)oc2ccc(S(=O)(=O)N(CCc3ccccc3)Cc3c(F)cccc3Cl)cc12` [Example F27-S47, 3-methyl-5-(N-(2-fluoro-6-chlorobenzyl)-N-phenethylsulfamoyl)benzofuran-2-carboxylic acid] displayed a melting point of 195 to 196 °C. On FXR, this molecule returned an IC50 of 0.1 to 10 µM.

As to `Cc1c(C(=O)O)oc2ccc(S(=O)(=O)N(CCc3ccccc3)Cc3c(F)cccc3C(F)(F)F)cc12` [Example F27-S48, 3-methyl-5-(N-(2-fluoro-6-(trifluoromethyl)benzyl)-N-phenethylsulfamoyl)benzofuran-2-carboxylic acid], the melting point lay in the range of 99 to 100 °C. The same molecule returned an IC50 at FXR of 10 to 50 µM.

Take `Cc1c(C(=O)O)oc2ccc(S(=O)(=O)N(CCc3ccccc3)Cc3c(Cl)cccc3Cl)cc12` [Example F27-S49, 3-methyl-5-(N-(2,6-dichlorobenzyl)-N-phenethylsulfamoyl)benzofuran-2-carboxylic acid]: the melting point fell in the range of 176 to 177 °C. The IC50 at FXR lay in the range of 0.1 to 10 µM.

Molecule `Cc1cccc(C)c1CN(CCc1ccccc1)S(=O)(=O)c1ccc2oc(C(=O)O)c(C)c2c1` [Example F27-S50, 3-methyl-5-(N-(2,6-dimethylbenzyl)-N-phenethylsulfamoyl)benzofuran-2-carboxylic acid] registered a melting point of 211 to 212 °C. The same molecule displayed an IC50 against FXR of 0.1 to 10 µM.

`Cc1c(C(=O)O)oc2ccc(S(=O)(=O)N(CCc3ccccc3)Cc3ccc(F)cc3F)cc12` [Example F27-S51, 3-methyl-5-(N-(2,4-difluorobenzyl)-N-phenethylsulfamoyl)benzofuran-2-carboxylic acid] showed a melting point of 155 to 156 °C. On FXR, this molecule returned an IC50 of 10 to 50 µM.

As for `Cc1c(C(=O)O)oc2ccc(S(=O)(=O)N(CCc3ccccc3)Cc3ccc(Cl)cc3F)cc12` [Example F27-S52, 3-methyl-5-(N-(2-fluoro-4-chlorobenzyl)-N-phenethylsulfamoyl)benzofuran-2-carboxylic acid], the melting point is > 380 °C (dec.). The IC50 on FXR lay within 10 to 50 µM.

As for `Cc1c(C(=O)O)oc2ccc(S(=O)(=O)N(CCc3ccccc3)Cc3ccc(Br)cc3F)cc12` [Example F27-S53, 3-methyl-5-(N-(2-fluoro-4-bromobenzyl)-N-phenethylsulfamoyl)benzofuran-2-carboxylic acid], the melting point was > 380 °C (dec.). The molecule further displayed an IC50 against FXR of 10 to 50 µM.

`Cc1c(C(=O)O)oc2ccc(S(=O)(=O)N(CCc3ccccc3)Cc3ccc(C(F)(F)F)cc3F)cc12` [Example F27-S55, 3-methyl-5-(N-(2-fluoro-4-(trifluoromethyl)benzyl)-N-phenethylsulfamoyl)benzofuran-2-carboxylic acid] registered a melting point of 174 to 175 °C. The molecule also displayed an IC50 against FXR of 50 to 100 µM.

Take `Cc1c(C(=O)O)oc2ccc(S(=O)(=O)N(CCc3ccccc3)Cc3ccc(F)cc3Cl)cc12` [Example F27-S56, 3-methyl-5-(N-(2-chloro-4-fluorobenzyl)-N-phenethylsulfamoyl)benzofuran-2-carboxylic acid]: the melting point is 145 to 146 °C. This molecule yielded an IC50 against FXR of 10 to 50 µM.

On to `Cc1c(C(=O)O)oc2ccc(S(=O)(=O)N(CCc3ccccc3)Cc3ccc(F)cc3C(F)(F)F)cc12` [Example F27-S57, 3-methyl-5-(N-(2-(trifluoromethyl)-4-fluorobenzyl)-N-phenethylsulfamoyl)benzofuran-2-carboxylic acid], for which the melting point lay within 156 to 157 °C. Further, the IC50 against FXR lay within 10 to 50 µM.

In turn, `Cc1c(C(=O)O)oc2ccc(S(=O)(=O)N(CCc3ccccc3)Cc3ccc(C(F)(F)F)cc3C(F)(F)F)cc12` [Example F27-S58, 3-methyl-5-(N-(2,4-bis(trifluoromethyl)benzyl)-N-phenethylsulfamoyl)benzofuran-2-carboxylic acid] came in with a melting point of 155 to 156 °C. The molecule further displayed an IC50 at FXR of 50 to 100 µM.

In the case of `Cc1c(C(=O)O)oc2ccc(S(=O)(=O)N(CCc3ccccc3)Cc3ccc(Br)cc3C(F)(F)F)cc12` [Example F27-S59, 3-methyl-5-(N-(2-(trifluoromethyl)-4-bromobenzyl)-N-phenethylsulfamoyl)benzofuran-2-carboxylic acid], the melting point fell in the range of 150 to 151 °C. Further, the IC50 against FXR was 50 to 100 µM.

With `Cc1c(C(=O)O)oc2ccc(S(=O)(=O)N(CCc3ccccc3)Cc3ccc(Cl)cc3Cl)cc12` [Example F27-S60, 3-methyl-5-(N-(2,4-dichlorobenzyl)-N-phenethylsulfamoyl)benzofuran-2-carboxylic acid], the melting point is 177 to 178 °C. For the same molecule, the IC50 against FXR lay within 10 to 50 µM.

In the case of `Cc1ccc(F)cc1CN(CCc1ccccc1)S(=O)(=O)c1ccc2oc(C(=O)O)c(C)c2c1` [Example F27-S61, 3-methyl-5-(N-(2-methyl-5-fluorobenzyl)-N-phenethylsulfamoyl)benzofuran-2-carboxylic acid], the melting point is > 380 °C (dec.). The same molecule had an IC50 against FXR of 10 to 50 µM.

For `Cc1c(C(=O)O)oc2ccc(S(=O)(=O)N(CCc3ccccc3)Cc3c(F)cc(Cl)cc3F)cc12` [Example F27-S62, 3-methyl-5-(N-(2,6-difluoro-4-chlorobenzyl)-N-phenethylsulfamoyl)benzofuran-2-carboxylic acid], the melting point was > 380 °C (dec.). At FXR, this molecule came in with a 50% inhibitory concentration (IC50) of 10 to 50 µM.

On to `Cc1c(C(=O)O)oc2ccc(S(=O)(=O)N(CCc3ccccc3)c3ccc(N4CCOCC4)cc3)cc12` [Example F27-S63, 3-methyl-5-(N-(4-morpholinophenyl)-N-phenethylsulfamoyl)benzofuran-2-carboxyli acid], for which the melting point is > 380 °C (dec.). Besides, the IC50 on FXR lay within 50 to 100 µM.

With `Cc1c(C(=O)O)oc2ccc(S(=O)(=O)N(CCc3ccccc3)c3ccc(N4CCN(C)CC4)cc3)cc12` [Example F27-S64, 3-methyl-5-(N-(4-(4-methylpiperazin-1-yl)phenyl)-N-phenethylsulfamoyl)benzofuran-2-carboxylic acid], the melting point was 152 to 153 °C. In addition, the IC50 on FXR lay within 50 to 100 µM.

Consider `Cc1c(C(=O)O)oc2ccc(S(=O)(=O)N(CCc3ccccc3)c3ccc(N4CCN(C(=O)OC(C)(C)C)CC4)cc3)cc12` [Example F27-S65, 3-methyl-5-(N-(4-(4-(tert-butoxycarbonyl)piperazin-1-yl)phenyl)-N-phenethylsulfamoyl)benzofuran-2-carboxylic acid], for which the melting point is > 380 °C (dec.). This molecule showed an IC50 against FXR of 10 to 50 µM.

Regarding `Cc1c(C(=O)O)oc2ccc(S(=O)(=O)N(CCc3ccccc3)c3ccc(N4CCN(C(=O)CC(C)(C)C)CC4)cc3)cc12` [Example F27-S66, 3-methyl-5-(N-(4-(4-(3,3-dimethylbutyryl)piperazin-1-yl)phenyl)-N-phenethylsulfamoyl)benzofuran-2-carboxylic acid], the melting point was > 380 °C (dec.). For the same molecule, at FXR, the IC50 was in the range of 10 to 50 µM.

On to `CCCOC(=O)N1CCN(c2ccc(N(CCc3ccccc3)S(=O)(=O)c3ccc4oc(C(=O)O)c(C)c4c3)cc2)CC1` [Example F27-S67, 3-methyl-5-(N-(4-(4-(propoxycarbonyl)piperazin-1-yl)phenyl)-N-phenethylsulfamoyl)benzofuran-2-carboxylic acid], for which the melting point is > 380 °C (dec.). The half-inhibitory concentration (IC50) on FXR is 10 to 50 µM.

In general, IC50 refers to the concentration at which inhibition is half-maximal. The low end stands for greater potency, the high end for weaker potency. The term melting point denotes the temperature of the solid-liquid transition.
